{"source": "patent US5552267A", "about": "“Solution for prolonged organ preservation” (priority 1994, dated 1996)", "key": {"lung [1]": {"system": "lung", "settings": "in vivo; cited from earlier work"}, "lung [2]": {"system": "lung", "test": "orthotopic rat left lung transplantation, nitroglycerin series", "format": "in vivo, rat (male Lewis)"}, "pulmonary vasculature": {"system": "pulmonary vasculature", "settings": "in vivo; cited from earlier work"}, "vascular smooth muscle": {"system": "vascular smooth muscle", "settings": "cited from earlier work"}, "[3]": {"system": "cardiac graft vasculature", "test": "graft blood flow by latex microspheres, cAMP series", "format": "in vivo, rat", "protocol": "Perfusion of Donor Graft. Ten minutes after restoration of blood flow, a suspension of latex microspheres (0.5 ml of 10 μm diameter microspheres at a final concentration in 10^6 /ml in phosphate-buffered saline containing Tween 80, 0.05%) (E-Z Trac, Los Angeles, Calif.) was injected over 30 seconds into the donor aortic root. After one minute, the heart was rapidly excised, rinsed free of intracavitary and surface blood, and the atria and great vessels were removed. The ventricles were cut into pieces, each piece weighed, and then digested by alkaline hydrolysis, centrifuged and washed according to the manufacturer's instructions. Beads in each piece were then counted in an Improved Neubauer hemocytometer VWR Scientific, Piscataway, N.J.). Results are expressed as number of spheres per (40X) field per gram of ventricle. A minimum of ten fields were counted and the mean ± SEM is reported."}, "[4]": {"system": "neutrophil infiltration of cardiac graft", "test": "graft myeloperoxidase activity/histology (leukocyte infiltration), cAMP series", "format": "in vivo, rat", "protocol": "Myeloperoxidase assay/histology. Ten minutes following restoration of blood flow, transplanted hearts were excised and the aortic root was flushed for 5 minutes (rate of 2 ml/minute controlled by roller pump) with normal saline (Baxter, Edison, N.J.), the atria and great vessels were removed, and intracavitary blood was evacuated. Remaining ventricular pieces were weighed, and homogenized in phosphate buffer (50 mM; pH 7.4, 5 ml/gm of tissue) containing hexadecyltrimethylammonium bromide (0.5%; HTAB, [Sigma]) and frozen at -80° C. The myeloperoxidase assay was performed, as described (29), by thawing the sample, centrifuging at 40,000 g for 10 minutes at 4° C., and decanting the supernatant, which was assayed for myeloperoxidase activity using standard chromogenic spectrophotometric technique: test sample (0.1 ml) was added to phosphate buffer (50 mM; pH 6.0) containing O-dianisidine dihydrochloride (Sigma), hydrogen peroxide (0.0005%), and change in absorbance at 460 nm was measured over 5 min (increase in OD was linear over this time interval). For histologic study, cardiac graft samples were fixed in an ascending series of aldehydes, embedded, sectioned, and stained with hematoxylin and eosin."}, "[5]": {"test": "in vitro toxicity to endothelial cells", "format": "cell-based", "settings": "data not shown, read-out: concentration toxic to endothelial cells"}, "heart": {"system": "heart", "test": "heterotopic rat cardiac transplant, cAMP series, graft survival/score", "format": "in vivo, rat (male Sprague-Dawley)", "source_text": "Preservation solutions included lactated Ringer's (LR) solution Baxter, Edison, N.J.), or LR supplemented with rolipram ZK 62 711, Schering AG, Berlin, Germany), indolidan LY195115, Lilly Research Laboratories, Indianapolis, Ind.), sodium butyrate, 8-bromoadenosine, 8-bromoadenosine 3',5'monophosphate (8-Br-cAMP; Sigma Chemical Co., St. Louis, Mo.), the Rp -isomer of adenosine 3',5'monophosphorothioate (Rp -cAMPS; Biolog, La Jolla, Calif.), the Sp isomer of adenosine 3',5'monophosphorothioate (Sp -cAMPS; Biolog), and N^6,O^2' -dibutyryl adenosine 3',5'monophosphate sodium (db-cAMP; Aldrich, Milwaukee, Wis.). Components were combined within 4 hrs of donor cardiectomy, and preservation solutions were kept at 4° C. University of Wisconsin solution (UW)(2-4 was purchased from Dupont (Wilmington, Del.).\nDonor Cardiectomy. Male Sprague-Dawley rats (350-450 grams, Camm Research, Wayne, N.J.) were anesthetized, heparinized (1000 units of heparin given intravenously), and the donor heart removed in the following manner; a midline incision was performed, followed by rapid cardioplegic arrest with 5 ml of cold (4° C.), high potassium solution (NACl, 0.9%, and KCl, 40 mEq/L). The heart was maintained at 4° C. throughout the harvest procedure by the application of a cold saline soaked gauze over its surface. […] The aortic root was flushed with ≈15 ml of the cold preservation solution until the coronary arteries became visibly clear, and the heart remained in the cold storage solution for the indicated duration until the time of transplantation.\nHeterotopic Transplant. The same breed/size of rat was used, and similarly anesthetized, but not given heparin. A midline abdominal incision was made, and the infrarenal aorta and vena cava were occluded with a side-biting vascular clamp and longitudinal incisions were made in each vessel. The donor heart was removed from the preservation solution and kept moist with saline-soaked gauze. […] Blood flow was restored to the graft (by removal of the clamp) exactly one hour after removal from the cold preservation solution. […] Ten minutes after removal of the cross-clamp, an electrocardiogram was taken (Grass Polygraph, Quincy, Mass.) and the heart was judged by the same blinded investigators throughout based on the presence/absence of regular contractions and a transplant score (0-5, worst-best, respectively) employing the following criteria: contraction (poor=0, average=1, vigorous=2), tissue turgor (hard=0, average=1, soft=2), and color (dusky=0, pink=1). […] The heterotopic cardiac transplant experiments performed in these studies were done by a single surgeon after establishment of this model and acquisition of surgical expertise, with control and experimental groups interspersed throughout the study period to prevent a time-dependent bias pertaining to surgical skills.\nStatistics. Graft survival data and transplant scores were analyzed using the Kruskal-Wallis non-parametric analysis of variance (38). Comparisons of individual treatments were performed using the procedure described by Dunn (39). In addition, the effect of db-cAMP on the time-course of graft failure was quantified by multivariate logistic regression. Graft myeloperoxidase data, microsphere data, and cAMP/adenylate cyclase/phosphodiesterase data from experiments with cultured vascular smooth muscle cells were analyzed by t-tests when 2 treatments were performed or by analysis of variance when 3 or more treatments were performed. In the latter case, post-hoc comparison of treatment groups were tested using Tukey's procedure. Values are expressed as means ±SEM, with a p <0.05 considered statistically significant."}}, "data": [{"molecule": "NNc1nncc2ccccc12", "note": "[hydralazine]", "values": [{"measurement": "effect on lung preservation", "setting": "lung [1]", "result": "not proven beneficial in lung preservation"}, {"measurement": "pulmonary artery flushing time", "setting": "lung [2]; 30 mL at constant pressure during harvest", "result": "69.3 ± 4.5", "unit": "s"}, {"measurement": "recipient survival", "setting": "lung [2]; 6 h in EC, 30 min, supplements NTG 0.1 mg/mL, hydralazine 0.02 μg/mL", "result": 33, "unit": "%"}]}, {"molecule": "CCCOc1ccccc1-c1nc2[nH]nnc2c(=O)[nH]1", "note": "[M&B 22948, 2-o-propoxyphenyl-8-azapurin-6-one]", "values": [{"measurement": "effect on vasodilators", "setting": "pulmonary vasculature", "result": "augments the pulmonary vasodilating effects of NO(cGMP)-dependent vasodilators, but not those of a cAMP-dependent vasodilator"}]}, {"molecule": "nitric oxide [NO]", "values": [{"measurement": "minimal concentration relaxing vascular smooth muscle", "setting": "vascular smooth muscle", "result": "less than 15 nM"}]}, {"molecule": "CCCC(=O)Nc1ncnc2c1ncn2[C@@H]1O[C@@H]2COP(=O)(O)O[C@H]2[C@H]1OC(=O)CCC", "note": "[db-cAMP, N^6, O^2' -dibutyryl adenosine 3',5'monophosphate]", "values": [{"measurement": "graft blood flow", "setting": "[3]; 12 h in LR, db-cAMP 2 mM vs LR alone", "result": "significant increase in blood flow"}, {"measurement": "fold increase in graft blood flow", "setting": "[3]; vs without db-cAMP", "result": 5.5, "unit": "fold"}, {"measurement": "fold decrease in neutrophil infiltration / myeloperoxidase activity", "setting": "[4]; 12 h, db-cAMP 2 mM in LR vs LR alone", "result": 3.2, "unit": "fold"}, {"measurement": "PMNs in blood vessel by histology", "setting": "[4]; 12 h in LR, 10 min reperfusion, db-cAMP 2 mM where added", "result": "no PMNs"}, {"measurement": "MCC", "setting": "[5]", "result": "> 4", "unit": "mM"}, {"measurement": "concentration for optimal/maximal preservation", "setting": "heart; 12 h in LR", "result": "1 to 2", "unit": "mM"}, {"measurement": "graft survival", "setting": "heart; 12 h preservation in LR", "result": 90, "unit": "%"}]}]}
